Measured values from doi:10.1101/2024.10.28.620768v1 (biorxiv, 2024).

Molecular target: Cdr1 (Candida albicans, UniProt Q5ANA3)
Assay: microscale thermophoresis, Alexa Fluor 647-labelled Cdr1, Hill fit
Format: binding

Chain of Cdr1 (Q5ANA3 whole entry): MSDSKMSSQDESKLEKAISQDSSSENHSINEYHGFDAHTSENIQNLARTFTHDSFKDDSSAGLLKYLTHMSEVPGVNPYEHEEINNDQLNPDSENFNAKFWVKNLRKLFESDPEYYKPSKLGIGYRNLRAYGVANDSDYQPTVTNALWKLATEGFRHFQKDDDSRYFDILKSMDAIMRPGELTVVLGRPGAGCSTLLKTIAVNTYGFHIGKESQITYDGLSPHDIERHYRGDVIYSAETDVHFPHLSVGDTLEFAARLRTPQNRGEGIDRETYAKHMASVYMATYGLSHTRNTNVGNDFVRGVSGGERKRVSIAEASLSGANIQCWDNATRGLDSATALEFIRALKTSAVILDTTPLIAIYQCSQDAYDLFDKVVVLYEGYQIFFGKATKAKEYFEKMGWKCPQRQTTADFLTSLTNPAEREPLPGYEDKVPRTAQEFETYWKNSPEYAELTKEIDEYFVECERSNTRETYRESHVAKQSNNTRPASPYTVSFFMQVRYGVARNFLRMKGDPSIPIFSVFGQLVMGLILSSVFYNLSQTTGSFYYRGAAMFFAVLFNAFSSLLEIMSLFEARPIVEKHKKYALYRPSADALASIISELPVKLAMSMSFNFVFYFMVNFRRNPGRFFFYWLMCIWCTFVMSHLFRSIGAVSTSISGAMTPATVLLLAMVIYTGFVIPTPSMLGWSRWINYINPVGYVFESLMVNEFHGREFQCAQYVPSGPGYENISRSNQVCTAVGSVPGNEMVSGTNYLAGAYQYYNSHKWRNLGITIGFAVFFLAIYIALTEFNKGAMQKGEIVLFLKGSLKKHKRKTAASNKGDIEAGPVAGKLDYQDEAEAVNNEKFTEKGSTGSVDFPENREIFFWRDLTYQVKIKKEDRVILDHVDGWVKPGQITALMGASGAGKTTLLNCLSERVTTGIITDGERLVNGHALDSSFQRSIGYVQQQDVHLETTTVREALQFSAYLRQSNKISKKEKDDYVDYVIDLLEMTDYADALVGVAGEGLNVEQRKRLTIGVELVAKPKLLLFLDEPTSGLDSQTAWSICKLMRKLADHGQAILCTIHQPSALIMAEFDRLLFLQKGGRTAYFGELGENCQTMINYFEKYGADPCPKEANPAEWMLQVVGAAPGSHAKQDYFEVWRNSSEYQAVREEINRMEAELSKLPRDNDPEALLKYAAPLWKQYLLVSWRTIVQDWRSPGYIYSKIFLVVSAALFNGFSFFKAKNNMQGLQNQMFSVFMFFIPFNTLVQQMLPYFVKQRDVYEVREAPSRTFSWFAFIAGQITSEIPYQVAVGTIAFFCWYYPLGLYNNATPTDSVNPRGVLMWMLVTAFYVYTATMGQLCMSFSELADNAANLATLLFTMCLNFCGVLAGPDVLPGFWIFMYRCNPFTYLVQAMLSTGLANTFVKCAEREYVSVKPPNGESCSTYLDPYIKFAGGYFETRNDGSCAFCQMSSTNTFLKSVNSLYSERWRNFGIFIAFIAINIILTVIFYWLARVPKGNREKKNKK

| Kd [µM] | Compound |
| --- | --- |
| 32.8 ± 8.2 | O=C1OC2(c3cc(F)c(O)cc3Oc3cc(O)c(F)cc32)c2ccccc21 [Oregon Green 488] |
| 59.8 ± 7.1 | CCN=c1cc2oc3cc(NCC)c(C)cc3c(-c3ccccc3C(=O)OCC)c-2cc1C [Rhodamine 6G] |
